Experimental data reported in patent US8802675B2, “Neuroprotective multifunctional compounds and pharmaceutical compositions comprising them” (priority 2009, dated 2014).
Where two headings read alike, the source gives them in different places.

What was measured:
[1] = test system: human SH-SY5Y neuroblastoma cells; experiment: MTT cell viability assay in SH-SY5Y cells; type: cell-based; settings: MTT after 48 h incubation
Protocol: Cell culture. Human neuroblastoma SH-SY5Y cells were obtained from American Type Culture Collection (Rockville, Md., USA). Cells were routinely cultured in MEM-Eagle/F-12(HAM) (1:1), containing 10% FCS and a mixture of 2% sodium bicarbonate, 1% penicillin/streptomycin/nystatin and 1% sodium pyruvate. Cell cultures were incubated at 37° C. in a humid 5% CO2-95% air environment.
Twenty-four hours after attachment of the SH-SY5Y cells, the medium was replaced with DMEM containing 0.1% BSA. The test compounds were added to the cells after 1 h of incubation. After 24 h incubation, the cells were subjected to MTT test as previously described (Gassen et al., 1998). The absorption was determined in a Perkin-Elmer Dual Wavelength Eliza-Reader at λ=570/650 nm after automatic subtraction of background readings. The results are expressed as percentage of the untreated control.
The effect of the iron chelators M30 and HLA20 versus that of the pro-chelators 13 and 23, on viability of human SH-SY5Y cells was tested. Human SH-SY5Y neuroblastoma cells were plated in 100-mm culture dishes and cultured in DMEM (4,500 mg/l glucose), containing 10% FCS (fetal calf serum, Bet Haemek, Israel), and 1% of a mixture of penicillin/streptomycin/nystatin. When cells reached the required confluence, they were detached and re-cultured in microtiter plates (96 wells) pre-coated with collagen ([…]), in DMEM with 10% of fetal calf serum (0.5×10^4 cells/well). Cell viability was tested by the 3-(4,5-dimethylthiazol-2-yl)-2,5-diphenyltetrazolium (MTT) assays after 48 h incubation.

[2] = target: AChE (Homo sapiens, UniProt P22303); experiment: Conversion of pro-chelator by AChE into active chelator (UV-vis and MS of extract); type: biochemical; settings: extract from a solution of AChE titrated with metal salts
Protocol: When ZnCl2, or CuSO4 were titrated into the extract, two new bands at around 365 nm or 375 nm appeared, corresponding to the formation of […], respectively. […] This finding was reinforced by mass spectrometry analysis of the extract, which gave a value of m/z 227.22, corresponding to m/z of [M30+H]^+.
When FeCl3 or FeSO4 were titrated to an extract from a solution of AChE into which compound 23 was added, new bands at around 460 nm and 590 nm appeared exactly matching the absorption of HLA20−Fe in FIG. 2A. Titration of CuSO4 or ZnCl2 to the extract introduced new bands at around 370 nm or 360 nm, corresponding to the absorption of the complexes […], respectively.

[3] = test system: ChE from rat brain homogenates; experiment: Time course of total ChE inhibition at 1 μM versus rivastigmine; type: biochemical; settings: for preincubation time to maximum (peak) inhibition on total ChE: 1 μM compound; for ChE inhibition compared with rivastigmine and other carbamates: 1 μM, time course
Protocol: The new carbamates of the present invention are expected to act as rivastigmine and inhibit ChE activity. […] Enzyme activity was determined with Ellman's colorimetric method after addition of substrate, and the results are shown in FIGS. 8A-8B.

[4] = target: T1, total cholinesterase (ChE) (Rattus norvegicus, UniProt P37136); experiment: Total cholinesterase inhibition in rat brain homogenates (Ellman); type: biochemical
T1 sequence (P37136 32-614): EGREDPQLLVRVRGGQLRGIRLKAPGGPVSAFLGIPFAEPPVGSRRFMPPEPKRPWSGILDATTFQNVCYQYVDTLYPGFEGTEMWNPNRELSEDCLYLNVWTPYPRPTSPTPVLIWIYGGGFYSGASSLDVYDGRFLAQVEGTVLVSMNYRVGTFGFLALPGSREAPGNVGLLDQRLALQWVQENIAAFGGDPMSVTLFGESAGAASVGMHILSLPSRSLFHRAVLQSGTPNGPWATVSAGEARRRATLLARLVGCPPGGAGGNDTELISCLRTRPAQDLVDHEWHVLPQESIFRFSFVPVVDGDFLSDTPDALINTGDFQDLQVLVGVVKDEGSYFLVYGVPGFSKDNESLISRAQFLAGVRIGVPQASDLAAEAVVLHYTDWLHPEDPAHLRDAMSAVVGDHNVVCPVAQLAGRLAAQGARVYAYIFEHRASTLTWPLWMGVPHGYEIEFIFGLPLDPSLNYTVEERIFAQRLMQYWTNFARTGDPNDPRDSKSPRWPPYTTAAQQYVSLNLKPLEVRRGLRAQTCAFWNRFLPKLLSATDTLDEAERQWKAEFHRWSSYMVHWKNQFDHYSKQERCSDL
Protocol: Cholinesterase activity was determined in rat brain homogenate following incubation with varying concentrations of the multifunctional pro-chelators of the invention (also referred to herein as “carbamates”).
Ellman's colorimetric method was adapted for determination of total cholinesterase (ChE) and butyrylcholinesterase (BuChE) activities in rat brain homogenates. Brain tissue from adult Wistar rats was homogenized at 2% w/v (or 10% w/v, for BuChE) in 0.1 M sodium phosphate buffer, pH 7.4, with added NaCl 58.5 g/l and Triton X-100 0.05% v/v. Aliquots of homogenate (20 μl) were incubated with the test compounds for designed time intervals in phosphate buffer pH 7.4, before addition of 5,5′-dithiobis(2-nitrobenzoic) acid and either 1 mM acetylthiocholine iodide or 10 mM butyrylthiocholine iodide (Sigma, St. Louis, Mo.). The reaction was run at 37° C. in a final volume of […] in 96-well microplates and was followed at 412 nm for 5 min with a plate reader. In every experiment, cholinesterase-independent (nonspecific) substrate hydrolysis was determined by including one experimental group treated with tacrine 30 μM. Appropriate tissue and reagent blanks were also included. Reaction velocities were determined in three or four replicates per condition; these were averaged and expressed as percent activity relative to control (solvent), after subtracting the rate of nonspecific hydrolysis.
The results are the mean SEM, n=3 in triplicates. ND—not determined.

Chain of AChE (P22303 32-614): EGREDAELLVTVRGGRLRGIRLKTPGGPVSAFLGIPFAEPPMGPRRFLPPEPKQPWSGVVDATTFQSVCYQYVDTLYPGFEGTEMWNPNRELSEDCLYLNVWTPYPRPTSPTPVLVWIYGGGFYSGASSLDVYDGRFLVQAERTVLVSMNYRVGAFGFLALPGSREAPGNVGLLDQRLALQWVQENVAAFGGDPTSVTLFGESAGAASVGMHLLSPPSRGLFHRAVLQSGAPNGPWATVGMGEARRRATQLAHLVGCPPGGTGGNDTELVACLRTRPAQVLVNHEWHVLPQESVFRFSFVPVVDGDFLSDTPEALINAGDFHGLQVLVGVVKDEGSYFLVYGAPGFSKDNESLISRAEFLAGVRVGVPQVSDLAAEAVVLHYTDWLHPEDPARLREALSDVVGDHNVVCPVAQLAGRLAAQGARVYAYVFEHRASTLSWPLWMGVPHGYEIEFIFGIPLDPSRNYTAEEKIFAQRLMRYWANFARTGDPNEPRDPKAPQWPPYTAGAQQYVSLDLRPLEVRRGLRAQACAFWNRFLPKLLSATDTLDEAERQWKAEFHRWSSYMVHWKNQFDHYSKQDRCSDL

C#CCC1CCN(Cc2ccc(OC(=O)N(C)C)c3ncccc23)CC1 [Compound 23, 5-((4-(propargyl)piperidin-1-yl)methyl)quinolin-8-yl dimethylcarbamate]
cell viability ([1]; 10 μM): over 75%
cell viability ([1]; 25 μM): over 75%
cell viability ([1]; 50 μM): 40%
conversion by AChE to active chelator [2]: converted compound 23 back into HLA20
preincubation time to maximum (peak) inhibition on total ChE [3]: 2 h
ChE inhibition compared with rivastigmine and other carbamates [3]: increasingly greater inhibition

C#CCN(C)Cc1ccc(OC(=O)N(C)CC)c2ncccc12 [Compound 3, 5-((methyl(propargyl)amino)methyl)quinolin-8-yl ethyl(methyl)carbamate]
preincubation time to maximum (peak) inhibition on total ChE [3]: ≤ 1.5 h
ChE inhibition compared with rivastigmine and other carbamates [3]: far less potent than the other carbamates
IC50 ([4]; rat brain homogenates, mean SEM, n=3 in triplicates): 9.8 µM

C#CCN(C)Cc1ccc(OC(=O)N2CCN(Cc3ccccc3)CC2)c2ncccc12 [Compound 13, 5-((methyl(propargyl)amino)methyl)quinolin-8-yl 4-benzyl piperazine-1-carboxylate]
cell viability ([1]; 10 μM): similar
cell viability ([1]; 25 μM): significantly higher
conversion by AChE to active chelator [2]: converted by AChE back into M30
ChE inhibition compared with rivastigmine and other carbamates [3]: as potent as rivastigmine

C#CCN(C)Cc1ccc(O)c2ncccc12 [M30, reference compound]
cell viability ([1]; 10 μM): similar
IC50 [4]: 114 µM

C#CCN(C)Cc1ccc(OC(=O)N2CCCC2)c2ncccc12 [Compound 5, 5-((methyl(propargyl)amino)methyl)quinolin-8-yl pyrrolidine-1-carboxylate]
preincubation time to maximum (peak) inhibition on total ChE [3]: ≤ 3 h
ChE inhibition compared with rivastigmine and other carbamates [3]: far less potent than the other carbamates
